# Source: ChEMBL document CHEMBL1128755, “LTD4 Receptor binding activity of novel pyridine chromanols: qualitative correlation with pKa” (Bioorg Med Chem Lett, 1995)
# Experiments:
# [1] = Partition coefficient (logP); format: physicochemical; details: octanol/water
# [2] = Association constant (pKa) was determined; format: physicochemical
# [3] = molecular target: T1, Cysteinyl leukotriene receptor 1 (Cavia porcellus, UniProt Q2NNR5); assay: Compound was tested for the inhibition of [3H]leukotriene D4 binding to LTD4 receptor in guinea pig lung membranes; format: cell membranes, Membrane
# T1 sequence (Q2NNR5 whole entry): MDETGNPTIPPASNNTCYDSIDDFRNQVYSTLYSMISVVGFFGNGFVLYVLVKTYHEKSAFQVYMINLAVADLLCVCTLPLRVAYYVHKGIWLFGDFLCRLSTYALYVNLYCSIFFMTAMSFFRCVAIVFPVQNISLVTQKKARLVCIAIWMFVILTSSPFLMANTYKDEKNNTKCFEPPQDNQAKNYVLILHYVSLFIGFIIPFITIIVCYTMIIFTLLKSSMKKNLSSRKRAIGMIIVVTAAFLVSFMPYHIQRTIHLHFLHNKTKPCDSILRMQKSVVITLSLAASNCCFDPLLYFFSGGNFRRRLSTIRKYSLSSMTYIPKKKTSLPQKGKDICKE
Compound,logP [1],pKa [2],Ki [3]
O[C@@H]1c2cc(OCc3cccc(Cl)n3)ccc2OC[C@@H]1Cc1cccnc1,1.27,0.72,23.4 µM
Cc1nc(COc2ccc3c(c2)[C@@H](O)[C@@H](Cc2cccnc2)CO3)ccc1Br,2.09,3.55,1.56 µM
Cc1nc(COc2ccc3c(c2)[C@@H](O)[C@@H](Cc2cccnc2)CO3)ccc1[N+](=O)[O-],0.99,1.52,0.24 µM
c1ccc2ncccc2c1 [QUINOLINE],,4.81,
O[C@@H]1c2cc(OCc3ccccn3)ccc2OC[C@@H]1Cc1cccnc1,0.66,5.25,> 100 µM
O[C@@H]1c2cc(OCc3ccc4ccccc4n3)ccc2OC[C@@H]1Cc1cccnc1,2.04,4.81,1.64 µM
O[C@@H]1c2cc(OCc3cccc(F)n3)ccc2OC[C@@H]1Cc1cccnc1,0.84,-0.44,> 100 µM
Cc1cccc(COc2ccc3c(c2)[C@@H](O)[C@@H](Cc2cccnc2)CO3)n1,1.11,5.96,> 100 µM
